Laboratory results taken from US6787570B2, “Substituted N-cycloalkyl-N-benzyl aminoalcohol compounds useful for inhibiting cholesteryl ester transfer protein activity” (Pfizer, Inc., priority 1999, dated 2004).

molecular target: T1, Human recombinant CETP (Homo sapiens, UniProt P11597); test: Assay of CETP Inhibition Using Purified Components (Reconstituted Buffer Assay); format: biochemical; conditions: transfer of [3H]CE from HDL to LDL, 2 hours at 37° C.
T1 construct: made in house; host or cells: CHO cells (serum-free conditioned medium)
T1 sequence (P11597 18-493): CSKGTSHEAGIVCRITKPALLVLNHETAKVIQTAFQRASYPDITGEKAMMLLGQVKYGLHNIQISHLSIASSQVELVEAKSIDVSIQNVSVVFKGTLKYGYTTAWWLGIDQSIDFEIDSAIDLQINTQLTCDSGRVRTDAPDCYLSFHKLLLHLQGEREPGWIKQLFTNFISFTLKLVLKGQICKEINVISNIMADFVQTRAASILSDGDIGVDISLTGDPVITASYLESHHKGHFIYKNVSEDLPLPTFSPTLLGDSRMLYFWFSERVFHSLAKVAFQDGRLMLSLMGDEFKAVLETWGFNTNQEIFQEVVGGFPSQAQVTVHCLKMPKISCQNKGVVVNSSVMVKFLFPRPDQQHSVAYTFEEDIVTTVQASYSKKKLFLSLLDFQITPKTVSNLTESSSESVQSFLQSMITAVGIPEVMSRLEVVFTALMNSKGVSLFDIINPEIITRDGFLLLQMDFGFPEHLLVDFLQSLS
Method: Assay of CETP Inhibition Using Purified Components (Reconstituted Buffer Assay)
The ability of compounds to inhibit CETP activity was assessed using an in vitro assay that measured the rate of transfer of radiolabeled cholesteryl ester ([^3H]CE) from HDL donor particles to LDL acceptor particles. Details of the assay are provided by Glenn, K. C. et al. (Glenn and Melton, “Quantification of Cholesteryl Ester Transfer Protein (CETP): A) CETP Activity and B) Immunochemical Assay of CETP Protein,” Meth. Enzymol., 263, 339-351 (1996)). Human recombinant CETP can be obtained from the serum-free conditioned medium of CHO cells transfected with a cDNA for CETP and purified as described by Wang, S. et al. (J. Biol. Chem. 267, 17487-17490 (1992)). To measure CETP activity, [^3H]CE-labeled-HDL, LDL, CETP and assay buffer (50 mM tris(hydroxymethyl)aminomethane, pH 7.4; 150 mM sodium chloride; 2 mM ethylenediamine-tetraacetic acid (EDTA); 1% bovine serum albumin) were incubated in a final volume of 200 μL, for 2 hours at 37° C. in 96 well plates. Inhibitors were included in the assay by diluting from a 10 mM DMSO stock solution into 16% (v/v) aqueous DMSO so that the final concentration of inhibitor was 800 μM. The inhibitors were then diluted 1:1 with CETP in assay buffer, and then 25 μL of that solution was mixed with 175 μL of lipoprotein pool for assay. Following incubation, LDL was differentially precipitated by the addition of 50 μL of 1% (w/v) dextran sulfate/0.5 M magnesium chloride, mixed by vortex, and incubated at room temperature for 10 minutes. A potion of the solution (200 μL) was transferred to a filter plate (Millipore). After filtration, the radioactivity present in the precipitated LDL was measured by liquid scintillation counting. […] The rate of [^3H]CE transfer using this assay was linear with respect to time and CETP concentration, up to 25-30% of [^3H]CE transferred.
The potency of test compounds was determined by performing the above described assay in the presence of varying concentrations of the test compounds and determining the concentration required for 50% inhibition of transfer of [3H]CE from HDL to LDL. This value was defined as the IC50. The IC50 values determined from this assay are accurate when the IC50 is greater than 10 nM.

IC50 [µM]	SMILES
15	CC1CCC(N(Cc2cccc(C(F)(F)F)c2)CC(O)C(F)(F)F)CC1 (stereo not drawn) [Example 1, 3-[(4-methylcyclohexyl)[[(3-trifluoromethyl)phenyl]methyl]amino]-1,1,1-trifluoro-2-propanol]
20	OC(CN(Cc1cccc(OC(F)(F)F)c1)C1CC1)C(F)(F)F (stereo not drawn) [Example 4]
> 100	CC(C)N(Cc1cccc(OC(F)(F)F)c1)CC(O)C(F)(F)F (stereo not drawn) [Example 5]
> 100	CCCN(Cc1cccc(OC(F)(F)F)c1)CC(O)C(F)(F)F (stereo not drawn) [Example 6]
45	CC(C)=CCN(CC(O)C(F)(F)F)c1cccc(OC(F)(F)F)c1 (stereo not drawn) [Example 8]
18	CCCCCC=CCN(CC(O)C(F)(F)F)c1cccc(OC(F)(F)F)c1 (stereo not drawn) [Example 9]
50	C#CCN(CC(O)C(F)(F)F)c1cccc(OC(F)(F)F)c1 (stereo not drawn) [Example 10]
45	CC(C)CCN(CC(O)C(F)(F)F)c1cccc(OC(F)(F)F)c1 (stereo not drawn) [Example 11]
60	C=C(CN(CC(O)C(F)(F)F)c1cccc(OC(F)(F)F)c1)C(=O)OC (stereo not drawn) [Example 12]
80	COC(=O)C=CCN(CC(O)C(F)(F)F)c1cccc(OC(F)(F)F)c1 (stereo not drawn) [Example 13]
55	COCC=CCN(CC(O)C(F)(F)F)c1cccc(OC(F)(F)F)c1 (stereo not drawn) [Example 14]
> 100	OC(CN(Cc1ccccc1)CC(O)C(F)(F)F)C(F)(F)F (stereo not drawn) [Example 15, 1,1′-[(Phenylmethyl)imino]bis[3,3,3-trifluoro-2-propanol]]
15	OC(CN(Cc1cccc(C(F)(F)F)c1)CC(O)C(F)(F)F)C(F)(F)F (stereo not drawn) [Example 16]
60	OC(CN(Cc1ccc(OC(F)(F)F)cc1)CC(O)C(F)(F)F)C(F)(F)F (stereo not drawn) [Example 17]
11	CCc1cc(Oc2cccc(N(CC3CCCCC3)CC(O)C(F)(F)F)c2)ccc1Cl (stereo not drawn) [Example 18, 3-[[3-(4-chloro-3-ethylphenoxy)phenyl][3-cyclohexylmethyl]amino]-1,1,1-trifluoro-2-propanol]
